Measurements from patent US20030216569A1, “Method of making HIV protease inhibitors” (priority 1993, published 2003).

Experiments:
[1] = biological target: HIV-1 protease (Human immunodeficiency virus type 1 group M subtype B, UniProt P04585); assay: Fluorescence HIV-1 Protease Inhibitor Assay (Pandex); format: biochemical; parameters: made in house; host or cells: E. coli K12 L507/pHP10D (NRRL B-18560); conditions: normalized to positive control (=1.0); * = a calculated average; read-out: Fluorescence Assay IC50 in ng/mL (converted)

| Compound | melting point [°C] | IC50 [1] [µM] |
| --- | --- | --- |
| Cc1ccc([N+](=O)[O-])cc1C(=O)NC(CSc1ccc2ccccc2c1)C(O)Cc1ccccc1C(=O)NC(C)(C)C (stereo not drawn) [Example 68, [2′R-(2′R*,3′S*)]-N-t-Butyl-2-[2′-hydroxy-3′-naphth-2-ylthiomethyl-4′-aza-5′-oxo-5′-(3″-nitro-6″-methylphenyl)pentyl] benzamide] | 85 to 88 | 17.1 |
| CC(C)(C)NC(=O)c1ccccc1CC(O)C(CSc1ccc2ccccc2c1)NC(=O)c1cccc(N)c1Br (stereo not drawn) [Example 45, [2′R-(2′R*,3′S*)]-N-t-Butyl-2-[2′-hydroxy-3′-naphth-2-ylthiomethyl-4′-aza-5′-oxo-5′-(2″-bromo-3″-aminophenyl)pentyl] benzamide] | 110 to 112 | 0.214 |
| CN1CCc2c(cccc2C(=O)N[C@@H](CSc2ccc3ccccc3c2)[C@H](O)Cc2ccccc2C(=O)NC(C)(C)C)C1 (relative stereo) [Example 59, [2′R-(2′R*,3′S*)]-N-t-Butyl-2-[2′-hydroxy-3′-naphth-2-ylthiomethyl-4′-aza-5′-oxo-5′-[2-N′(methyl)-1″,2″,3″,4″-tetrahydroisoquinolin-5″-yl)pentyl] benzamide] | 110 to 113 | 0.587 |
| Cc1c(C(=O)NC(CSc2ccc3ccccc3c2)C(O)Cc2ccccc2C(=O)NC(C)(C)C)ccc(O)c1O (stereo not drawn) [Example 70, [2′R-(2′R*,3′S*)]-N-t-Butyl-2-[2′-hydroxy-3′-naphth-2-ylthiomethyl-4′-aza-5′-oxo-5′-(2″-methyl-3″,4″-dihydroxyphenyl)pentyl] benzamide] | 121 to 123 | 0.183 |
| CC(C)(C)NC(=O)c1ccccc1CC(O)C(CSc1ccc2ccccc2c1)NC(=O)c1cccc(N)c1 (stereo not drawn) [Example 50, [2′R-(2′R*,3′S*)]-N-t-Butyl-2-[2′-hydroxy-3′-naphth-2-ylthiomethyl-4′-aza-5′-oxo-5′-(3″-aminophenyl)pentyl] benzamide] | 101 to 102 | 0.222 |
| Cc1c(C(=O)NC(CSc2ccc3ccccc3c2)C(O)Cc2ccccc2C(=O)NC(C)(C)C)cccc1[N+](=O)[O-] (stereo not drawn) [Example 67, [2′R-(2′R*,3′S*)]-N-t-Butyl-2-[2′-hydroxy-3′-naphth-2-hiomethyl-4′-aza-5′-oxo-5′-(2″-methyl-3″-nitrophenyl)pentyl] benzamide] | 80 to 81 | 0.927 |
| CC(C)(C)NC(=O)c1ccccc1C[C@@H](O)[C@@H](CSc1ccc2ccccc2c1)NC(=O)c1ccnc2ccccc12 [Example 66, [2′R-(2′R*,3′S*)]-N-t-Butyl-2-[2′-hydroxy-3′-naphth-2-ylthiomethyl-4′-aza-5′-oxo-5′-(quinolin-4″-yl)pentyl] benzamide] | 89 to 92 | 0.474 |
